The test system of one assay is HBsAg. The assay can be described thus: HBsAg / Anti-HBs serotyping (VITROS ECi). It counts as in vivo, hepatitis B virus. The following applies: Week 14/18; Part 2 Group C (n 11). How it is done: Serotyping was performed using a VITROS ECi Immunodiagnostic System.
The test system of assay [1] is HBs peptide pools (PreS2 + S ayw) and HbsAg protein. Briefly: Ex vivo IFN-gamma ELISPOT of patient PBMC. The conditions noted are these: Part 2 Groups A, B, C. It is filed as in vivo, human. On the procedure: ELISPOT Assays were carried out by Cellular Technology Limited (CTL Laboratory LLC. 10515 Carnegie Ave., Suite 503 Cleveland Ohio 44106, USA) using the following assay conditions:
The following peptides were pooled and used as antigens:
The HBs series of peptides are arranged into 4 distinct pools of peptides, each containing up to 12 total peptides:
The entire HbsAg protein was also used as an antigen.
An ELISPOT response to a peptide pool (or HbsAg protein) was considered to have occurred when the mean +/− standard deviation for the peptide pool, or HbsAg protein, was greater than the mean +3 standard deviations of that patient's negative control.

On to `Nc1ccn([C@@H]2CS[C@H](CO)O2)c(=O)n1` [lamivudine, Lamivudine], for which, in the assay on HBsAg, the “HBsAg−, percent of patients” value came to 9%. For the same compound, in assay [1], the “baseline immunological responses (detected prior to treatment, unchanged or reduced)” value is on record as 3; the “boosted immunological responses (of baseline responses)” value is 5/8; the “de novo immunological responses (of baseline non-responders)” value is 0/3.
